In brackets after ≈: the same amount, converted by molar mass.
Experiments:
Escherichia coli = assay: Antimicrobial activity against Escherichia coli ATCC 25922 incubated for 18 hrs by serial microdilution method; assay type: functional; conditions: ATCC 25922, 18 h
Staphylococcus aureus [1] = assay: Antimicrobial activity against methicillin-resistant Staphylococcus aureus incubated for 18 hrs by serial microdilution method; assay type: functional
[2] = system: Staphylococcus epidermidis; assay: Antimicrobial activity against Staphylococcus epidermidis ATCC 49134 incubated for 18 hrs by serial microdilution method; assay type: functional; conditions: ATCC 49134, 18 h
[3] = system: Staphylococcus epidermidis; assay: Antimicrobial activity against Staphylococcus epidermidis ATCC 12228 incubated for 18 hrs by serial microdilution method; assay type: functional; conditions: ATCC 12228, 18 h
Enterococcus faecalis = assay: Antimicrobial activity against Enterococcus faecalis ATCC 29212 incubated for 18 hrs by serial microdilution method; assay type: functional; conditions: ATCC 29212, 18 h
[4] = Solubility of the compound in water at pH 7 by UV-vis spectrophotometric analysis; assay type: physicochemical
Staphylococcus aureus [5] = assay: Antimicrobial activity against Staphylococcus aureus ATCC 6538 incubated for 18 hrs by serial microdilution method; assay type: functional; conditions: ATCC 6538, 18 h
Staphylococcus aureus [6] = assay: Antimicrobial activity against MLSB-resistant Staphylococcus aureus incubated for 18 hrs by serial microdilution method; assay type: functional
[7] = Lipophilicity, log P of the compound in octanol and water incubated for 1 h under shaking condition; assay type: physicochemical

SMILES | MIC (Escherichia coli) [µg/mL] | MIC (Staphylococcus aureus [1]) [µg/mL] | MIC [2] [µg/mL] | MIC [3] [µg/mL] | MIC (Enterococcus faecalis) [µg/mL] | solubility [4] [µg/mL] | MIC (Staphylococcus aureus [5]) [µg/mL] | MIC (Staphylococcus aureus [6]) [µg/mL] | logP at 1 h [7]
CO[C@H]1/C=C/O[C@@]2(C)Oc3c(C)c(O)c4c(O)c(c(CNCCN5CCCC5=O)c(O)c4c3C2=O)NC(=O)/C(C)=C\C=C\[C@H](C)[C@H](O)[C@@H](C)[C@@H](O)[C@@H](C)[C@H](OC(C)=O)[C@@H]1C | > 8 | 2 (≈ 2.39 µM) | 1 (≈ 1.19 µM) | 2 (≈ 2.39 µM) | > 8 | 100 (≈ 119 µM) | 2 (≈ 2.39 µM) | 4 (≈ 4.77 µM) | 1.24
CO[C@H]1/C=C/O[C@@]2(C)Oc3c(C)c(O)c4c(O)c(c(/C=N/NCc5ccccc5)c(O)c4c3C2=O)NC(=O)/C(C)=C\C=C\[C@H](C)[C@H](O)[C@@H](C)[C@@H](O)[C@@H](C)[C@H](OC(C)=O)[C@@H]1C | > 8 | 1 (≈ 1.2 µM) | 0.25 (≈ 0.301 µM) | 0.25 (≈ 0.301 µM) | > 8 | < 50 | 0.5 (≈ 0.602 µM) | 0.5 (≈ 0.602 µM) | 2.34
CO[C@H]1/C=C/O[C@@]2(C)Oc3c(C)c(O)c4c(O)c(c(CNC5CCCC(C(N)=O)C5)c(O)c4c3C2=O)NC(=O)/C(C)=C\C=C\[C@H](C)[C@H](O)[C@@H](C)[C@@H](O)[C@@H](C)[C@H](OC(C)=O)[C@@H]1C (stereo partly drawn) | > 8 | 0.5 (≈ 0.587 µM) | 0.25 (≈ 0.293 µM) | 0.25 (≈ 0.293 µM) | > 8 | 150 (≈ 176 µM) | 0.5 (≈ 0.587 µM) | 0.25 (≈ 0.293 µM) | 1.33
CO[C@H]1/C=C/O[C@@]2(C)Oc3c(C)c(O)c4c(O)c(c(CNC56CC7CC(CC(C7)C5)C6)c(O)c4c3C2=O)NC(=O)/C(C)=C\C=C\[C@H](C)[C@H](O)[C@@H](C)[C@@H](O)[C@@H](C)[C@H](OC(C)=O)[C@@H]1C | > 8 | 0.5 (≈ 0.581 µM) | 2 (≈ 2.32 µM) | 4 (≈ 4.65 µM) | 1 (≈ 1.16 µM) | < 50 | 0.5 (≈ 0.581 µM) | 0.5 (≈ 0.581 µM) | 1.91
CO[C@H]1/C=C/O[C@@]2(C)Oc3c(C)c(O)c4c(O)c(c(CN5CCN(c6ccccn6)CC5)c(O)c4c3C2=O)NC(=O)/C(C)=C\C=C\[C@H](C)[C@H](O)[C@@H](C)[C@@H](O)[C@@H](C)[C@H](OC(C)=O)[C@@H]1C | > 8 | 1 (≈ 1.15 µM) | 0.25 (≈ 0.286 µM) | 0.25 (≈ 0.286 µM) | > 8 | < 50 | 2 (≈ 2.29 µM) | 0.5 (≈ 0.573 µM) | 1.99
CO[C@H]1/C=C/O[C@@]2(C)Oc3c(C)c(O)c4c(O)c(c(/C=N/N5CCOCC5)c(O)c4c3C2=O)NC(=O)/C(C)=C\C=C\[C@H](C)[C@H](O)[C@@H](C)[C@@H](O)[C@@H](C)[C@H](OC(C)=O)[C@@H]1C | > 8 | 0.5 (≈ 0.617 µM) | 0.25 (≈ 0.309 µM) | 0.25 (≈ 0.309 µM) | > 8 | < 50 | 1 (≈ 1.23 µM) | 1 (≈ 1.23 µM) | 2.79
CCS(=O)(=O)N1CCN(Cc2c3c(O)c4c(O)c(C)c5c(c4c2O)C(=O)[C@@](C)(O/C=C/[C@H](OC)[C@@H](C)[C@@H](OC(C)=O)[C@H](C)[C@H](O)[C@H](C)[C@@H](O)[C@@H](C)/C=C/C=C(/C)C(=O)N3)O5)CC1 | > 8 | 0.5 (≈ 0.563 µM) | 0.25 (≈ 0.282 µM) | 0.25 (≈ 0.282 µM) | > 8 | 1730 (≈ 1950 µM) | 0.5 (≈ 0.563 µM) | 0.5 (≈ 0.563 µM) | 1.41
CO[C@H]1/C=C/O[C@@]2(C)Oc3c(C)c(O)c4c(O)c(c(CN5CCN(C(c6ccc(F)cc6)c6ccc(F)cc6)CC5)c(O)c4c3C2=O)NC(=O)/C(C)=C\C=C\[C@H](C)[C@H](O)[C@@H](C)[C@@H](O)[C@@H](C)[C@H](OC(C)=O)[C@@H]1C | > 8 | 4 (≈ 4.01 µM) | 2 (≈ 2 µM) | 4 (≈ 4.01 µM) | > 8 | < 50 | 4 (≈ 4.01 µM) | 8 (≈ 8.01 µM) | 2.34
CO[C@H]1/C=C/O[C@@]2(C)Oc3c(C)c(O)c4c(O)c(c(CN5CCN(c6ccncc6)CC5)c(O)c4c3C2=O)NC(=O)/C(C)=C\C=C\[C@H](C)[C@H](O)[C@@H](C)[C@@H](O)[C@@H](C)[C@H](OC(C)=O)[C@@H]1C | > 8 | 2 (≈ 2.29 µM) | 0.5 (≈ 0.573 µM) | 0.5 (≈ 0.573 µM) | > 8 | < 50 | 2 (≈ 2.29 µM) | 2 (≈ 2.29 µM) | 2.06
CO[C@H]1/C=C/O[C@@]2(C)Oc3c(C)c(O)c4c(O)c(c(CN5CCN(Cc6ccc(F)cc6)CC5)c(O)c4c3C2=O)NC(=O)/C(C)=C\C=C\[C@H](C)[C@H](O)[C@@H](C)[C@@H](O)[C@@H](C)[C@H](OC(C)=O)[C@@H]1C | > 8 | 1 (≈ 1.11 µM) | 0.25 (≈ 0.277 µM) | 0.25 (≈ 0.277 µM) | 8 (≈ 8.85 µM) | < 50 | 1 (≈ 1.11 µM) | 0.25 (≈ 0.277 µM) | 3.31
CO[C@H]1/C=C/O[C@@]2(C)Oc3c(C)c(O)c4c(O)c(c(/C=N/N5CCCCCC5)c(O)c4c3C2=O)NC(=O)/C(C)=C\C=C\[C@H](C)[C@H](O)[C@@H](C)[C@@H](O)[C@@H](C)[C@H](OC(C)=O)[C@@H]1C | > 8 | 0.0625 (≈ 0.076 µM) | 0.0312 (≈ 0.038 µM) | 0.0312 (≈ 0.038 µM) | 0.5 (≈ 0.608 µM) | < 300 | 0.0625 (≈ 0.076 µM) | 0.5 (≈ 0.608 µM) | 3.43
CO[C@H]1/C=C/O[C@@]2(C)Oc3c(C)c(O)c4c(O)c(c(CNCC(=O)N5CCCCC5)c(O)c4c3C2=O)NC(=O)/C(C)=C\C=C\[C@H](C)[C@H](O)[C@@H](C)[C@@H](O)[C@@H](C)[C@H](OC(C)=O)[C@@H]1C | > 8 | 1 (≈ 1.17 µM) | 0.25 (≈ 0.293 µM) | 0.5 (≈ 0.587 µM) | > 8 | 120 (≈ 141 µM) | 1 (≈ 1.17 µM) | 1 (≈ 1.17 µM) | 1.35
CO[C@H]1/C=C/O[C@@]2(C)Oc3c(C)c(O)c4c(O)c(c(/C=N/N5CCCC5)c(O)c4c3C2=O)NC(=O)/C(C)=C\C=C\[C@H](C)[C@H](O)[C@@H](C)[C@@H](O)[C@@H](C)[C@H](OC(C)=O)[C@@H]1C | > 8 | 0.25 (≈ 0.315 µM) | 0.25 (≈ 0.315 µM) | 0.25 (≈ 0.315 µM) | 4 (≈ 5.04 µM) | < 300 | 0.25 (≈ 0.315 µM) | 0.5 (≈ 0.63 µM) | 3.13
CO[C@H]1/C=C/O[C@@]2(C)Oc3c(C)c(O)c4c(O)c(c(CN5CCN(C)CC5)c(O)c4c3C2=O)NC(=O)/C(C)=C\C=C\[C@H](C)[C@H](O)[C@@H](C)[C@@H](O)[C@@H](C)[C@H](OC(C)=O)[C@@H]1C | > 8 | 0.5 (≈ 0.617 µM) | 0.25 (≈ 0.309 µM) | 0.25 (≈ 0.309 µM) | > 8 | 100 (≈ 123 µM) | 0.5 (≈ 0.617 µM) | 1 (≈ 1.23 µM) | 1.76
CO[C@H]1/C=C/O[C@@]2(C)Oc3c(C)c(O)c4c(O)c(c(C=O)c(O)c4c3C2=O)NC(=O)/C(C)=C\C=C\[C@H](C)[C@H](O)[C@@H](C)[C@@H](O)[C@@H](C)[C@H](OC(C)=O)[C@@H]1C | > 8 | 4 (≈ 5.51 µM) | 2 (≈ 2.76 µM) | 2 (≈ 2.76 µM) | > 8 | – | 2 (≈ 2.76 µM) | 2 (≈ 2.76 µM) | –
CO[C@H]1/C=C/O[C@@]2(C)Oc3c(C)c(O)c4c(O)c(c(CN5CCC(NS(C)(=O)=O)CC5)c(O)c4c3C2=O)NC(=O)/C(C)=C\C=C\[C@H](C)[C@H](O)[C@@H](C)[C@@H](O)[C@@H](C)[C@H](OC(C)=O)[C@@H]1C | > 8 | 2 (≈ 2.25 µM) | 0.5 (≈ 0.563 µM) | 0.5 (≈ 0.563 µM) | > 8 | 36400 (≈ 41000 µM) | 4 (≈ 4.5 µM) | 2 (≈ 2.25 µM) | 0.31
CO[C@H]1/C=C/O[C@@]2(C)Oc3c(C)c(O)c4c(O)c(c(/C=N/Nc5ccccc5)c(O)c4c3C2=O)NC(=O)/C(C)=C\C=C\[C@H](C)[C@H](O)[C@@H](C)[C@@H](O)[C@@H](C)[C@H](OC(C)=O)[C@@H]1C | > 8 | 0.5 (≈ 0.613 µM) | 0.25 (≈ 0.306 µM) | 0.5 (≈ 0.613 µM) | > 8 | < 50 | 0.5 (≈ 0.613 µM) | 1 (≈ 1.23 µM) | 2.75
CO[C@H]1/C=C/O[C@@]2(C)Oc3c(C)c(O)c4c(O)c(c(/C=N/N5CCCCC5)c(O)c4c3C2=O)NC(=O)/C(C)=C\C=C\[C@H](C)[C@H](O)[C@@H](C)[C@@H](O)[C@@H](C)[C@H](OC(C)=O)[C@@H]1C | > 8 | 0.0156 (≈ 0.0193 µM) | 0.0312 (≈ 0.0387 µM) | 0.0156 (≈ 0.0193 µM) | 0.5 (≈ 0.619 µM) | < 300 | 0.0156 (≈ 0.0193 µM) | 0.5 (≈ 0.619 µM) | 3.27
CO[C@H]1/C=C/O[C@@]2(C)Oc3c(C)c(O)c4c(O)c(c(CN5CCN(Cc6c(C)cc(C)cc6C)CC5)c(O)c4c3C2=O)NC(=O)/C(C)=C\C=C\[C@H](C)[C@H](O)[C@@H](C)[C@@H](O)[C@@H](C)[C@H](OC(C)=O)[C@@H]1C | > 8 | 2 (≈ 2.15 µM) | 1 (≈ 1.08 µM) | 0.5 (≈ 0.539 µM) | > 8 | < 300 | 4 (≈ 4.31 µM) | 2 (≈ 2.15 µM) | 1.82
CO[C@H]1/C=C/O[C@@]2(C)Oc3c(C)c(O)c4c(O)c(c(/C=N/N5CCN(C)CC5)c(O)c4c3C2=O)NC(=O)/C(C)=C\C=C\[C@H](C)[C@H](O)[C@@H](C)[C@@H](O)[C@@H](C)[C@H](OC(C)=O)[C@@H]1C [RIFAMPIN] | > 8 | 0.0156 (≈ 0.019 µM) | 0.0156 (≈ 0.019 µM) | 0.0156 (≈ 0.019 µM) | 8 (≈ 9.72 µM) | – | 0.0156 (≈ 0.019 µM) | 0.0312 (≈ 0.038 µM) | –
CO[C@H]1/C=C/O[C@@]2(C)Oc3c(C)c(O)c4c(O)c(c5c(nc6cc(C)ccn65)c4c3C2=O)NC(=O)/C(C)=C\C=C\[C@H](C)[C@H](O)[C@@H](C)[C@@H](O)[C@@H](C)[C@H](OC(C)=O)[C@@H]1C [RIFAXIMIN] | > 8 | 0.0625 (≈ 0.0795 µM) | 0.0312 (≈ 0.0398 µM) | 0.0312 (≈ 0.0398 µM) | 8 (≈ 10.2 µM) | – | 0.0625 (≈ 0.0795 µM) | 0.125 (≈ 0.159 µM) | –

From ChEMBL document CHEMBL4339185 (Eur J Med Chem, 2019)
